According to US9028890B2, “Composition for improving sexual wellness” (Horphag Research (IP) Pre Ltd., priority 2010, dated 2015):

Tests used:
[1] = system: postmenopausal women; details: cited from earlier work
[2] = system: postmenopausal women; details: taken together with supplemental hormones, cited from earlier work
[3] = system: Adult women of all ages with a score lower than four points for all five domains; test: Women responding by FSFI: score equal to or higher than four points for all five domains after four weeks (Examples 3, 5, 6); type: in vivo, human; details: daily supply, four weeks treatment
Source text: Women's sexual function is scored using the established “Female Sexual Function Index” (FSFI) questionnaire [Rosen et al., 2000]. The questionnaire allows to score prevalence of six subcategories (domains) related to female sexual function, with minimum and maximum scores given:
Adult women of all ages were investigated who presented with a score lower than four points out of maximum six points for all five domains.
The investigation depicts the number of responders to the intervention as detailed in the tables after four weeks treatment with a score equal to or higher than four points for all five domains.

SMILES	treatment of SD [1]	women who reported improved genital sensations ([2]; 202 postmenopausal women, placebo group 43 percent)	group members who reported greater satisfaction with sex ([2]; placebo group 27 percent)	Responders (women responding with improvement / n) [3]
CCCc1nn(C)c2c(=O)[nH]c(-c3cc(S(=O)(=O)N4CCN(C)CC4)ccc3OCC)nc12 [sildenafil]	not effective	57%	Forty-one	
N=C(N)NCCC[C@H](N)C(=O)O [2.8 g L-arginine, L-arginine]				5/26
